Measured values: ChEMBL document CHEMBL1201862, “PubChem BioAssay data set” (2004)
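Exposure lasted 48 hours, with cells grown in 96-well plates and compounds tested at five concentrations. GI50 is the concentration that inhibits growth by half.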 Calls of active or inactive are those of the source. Rule as the data show it: active = GI50 up to about 1.1 µM and inactive = higher.

Key:
Assay in all cases: DTP human tumour cell line panel, 48 h
BT-549 = tested on: BT-549
SN12C = tested on: SN12C
OVCAR-8 = tested on: OVCAR-8
M14 = tested on: M14
IGROV-1 = tested on: IGROV-1
MDA-MB-231 = tested on: MDA-MB-231
786-0 = tested on: 786-0
NCI/ADR-RES = tested on: NCI/ADR-RES
OVCAR-5 = tested on: OVCAR-5
HOP-92 = tested on: HOP-92
U-251 = tested on: U-251
SW-620 = tested on: SW-620
DU-145 = tested on: DU-145
T47D = tested on: T47D
HOP-62 = tested on: HOP-62
A498 = tested on: A498
COLO 205 = tested on: COLO 205
NCI-H460 = tested on: NCI-H460
NCI-H23 = tested on: NCI-H23
SK-MEL-2 = tested on: SK-MEL-2

SMILES: CCN(CC(=O)O)CC(=O)O
- GI50 (BT-549): > 100 µM (inactive)
- GI50 (SN12C): > 100 µM (inactive)
- GI50 (OVCAR-8): > 100 µM (inactive)
- GI50 (M14): > 100 µM (inactive)
- GI50 (IGROV-1): > 100 µM (inactive)
- GI50 (MDA-MB-231): > 100 µM (inactive)
- GI50 (786-0): > 100 µM (inactive)
- GI50 (NCI/ADR-RES): > 100 µM (inactive)
- GI50 (OVCAR-5): > 100 µM (inactive)
- GI50 (HOP-92): > 100 µM (inactive)
- GI50 (U-251): > 100 µM (inactive)
- GI50 (SW-620): > 100 µM (inactive)
- GI50 (DU-145): > 100 µM (inactive)
- GI50 (T47D): > 100 µM (inactive)
- GI50 (HOP-62): > 100 µM (inactive)
- GI50 (A498): > 100 µM (inactive)
- GI50 (COLO 205): > 100 µM (inactive)
- GI50 (NCI-H460): > 100 µM (inactive)
- GI50 (NCI-H23): > 100 µM (inactive)
- GI50 (SK-MEL-2): > 100 µM (inactive)

SMILES: CCCCCCCCCCCCCCCCSS(C)(=O)=O
- GI50 (BT-549): 4.42 µM (inactive)
- GI50 (SN12C): 37.8 µM (inactive)
- GI50 (OVCAR-8): 29.4 µM (inactive)
- GI50 (M14): 9.42 µM (inactive)
- GI50 (IGROV-1): 32.4 µM (inactive)
- GI50 (MDA-MB-231): > 100 µM (inactive)
- GI50 (786-0): 7.06 µM (inactive)
- GI50 (NCI/ADR-RES): 2.33 µM (inactive)
- GI50 (OVCAR-5): > 91 µM (inactive)
- GI50 (HOP-92): 15.5 µM (inactive)
- GI50 (U-251): 55 µM (inactive)
- GI50 (SW-620): 5.21 µM (inactive)
- GI50 (DU-145): > 100 µM (inactive)
- GI50 (T47D): 8.97 µM (inactive)
- GI50 (HOP-62): > 100 µM (inactive)
- GI50 (A498): 52.4 µM (inactive)
- GI50 (COLO 205): 19.2 µM (inactive)
- GI50 (NCI-H460): > 61.2 µM (inactive)
- GI50 (NCI-H23): 42.8 µM (inactive)
- GI50 (SK-MEL-2): 5.81 µM (inactive)

SMILES: Nc1nc2c(ncn2C2CCC(CO)O2)c(=O)n1C(=O)c1ccccc1 (stereo not given)
- GI50 (BT-549): > 100 µM (inactive)
- GI50 (SN12C): > 100 µM (inactive)
- GI50 (OVCAR-8): > 100 µM (inactive)
- GI50 (M14): > 100 µM (inactive)
- GI50 (IGROV-1): > 100 µM (inactive)
- GI50 (MDA-MB-231): > 100 µM (inactive)
- GI50 (786-0): > 100 µM (inactive)
- GI50 (NCI/ADR-RES): > 100 µM (inactive)
- GI50 (OVCAR-5): > 100 µM (inactive)
- GI50 (HOP-92): > 100 µM (inactive)
- GI50 (U-251): > 100 µM (inactive)
- GI50 (SW-620): > 100 µM (inactive)
- GI50 (DU-145): > 100 µM (inactive)
- GI50 (T47D): > 100 µM (inactive)
- GI50 (HOP-62): > 100 µM (inactive)
- GI50 (A498): > 100 µM (inactive)
- GI50 (COLO 205): > 100 µM (inactive)
- GI50 (NCI-H460): > 100 µM (inactive)
- GI50 (NCI-H23): > 100 µM (inactive)
- GI50 (SK-MEL-2): > 100 µM (inactive)

SMILES: CC(=O)Nc1ccc(S(=O)(=O)c2nnc(NC(C)=O)s2)cc1
- GI50 (BT-549): > 100 µM (inactive)
- GI50 (SN12C): > 100 µM (inactive)
- GI50 (OVCAR-8): > 100 µM (inactive)
- GI50 (M14): > 100 µM (inactive)
- GI50 (IGROV-1): > 100 µM (inactive)
- GI50 (MDA-MB-231): > 100 µM (inactive)
- GI50 (786-0): > 100 µM (inactive)
- GI50 (NCI/ADR-RES): > 100 µM (inactive)
- GI50 (OVCAR-5): > 100 µM (inactive)
- GI50 (HOP-92): > 100 µM (inactive)
- GI50 (U-251): > 100 µM (inactive)
- GI50 (SW-620): > 100 µM (inactive)
- GI50 (DU-145): > 100 µM (inactive)
- GI50 (T47D): > 100 µM (inactive)
- GI50 (HOP-62): > 100 µM (inactive)
- GI50 (A498): > 100 µM (inactive)
- GI50 (COLO 205): 0.215 µM (active)
- GI50 (NCI-H460): > 100 µM (inactive)
- GI50 (NCI-H23): > 100 µM (inactive)
- GI50 (SK-MEL-2): > 100 µM (inactive)

SMILES: CC1=C(/C=C/C(C)=C/C=C/C(C)=C/C(=O)O)C(C)(C)CCC1 [TRETINOIN]
- GI50 (BT-549): 37.3 µM (inactive)
- GI50 (SN12C): 52 µM (inactive)
- GI50 (OVCAR-8): > 65.3 µM (inactive)
- GI50 (M14): 49.4 µM (inactive)
- GI50 (IGROV-1): > 78.9 µM (inactive)
- GI50 (MDA-MB-231): 50.4 µM (inactive)
- GI50 (786-0): 49.9 µM (inactive)
- GI50 (NCI/ADR-RES): 37.3 µM (inactive)
- GI50 (OVCAR-5): > 68.5 µM (inactive)
- GI50 (HOP-92): > 63.8 µM (inactive)
- GI50 (U-251): 51.3 µM (inactive)
- GI50 (SW-620): 45.8 µM (inactive)
- GI50 (DU-145): 55.3 µM (inactive)
- GI50 (T47D): 2.55 µM (inactive)
- GI50 (HOP-62): 49.9 µM (inactive)
- GI50 (A498): > 74.5 µM (inactive)
- GI50 (COLO 205): 49.3 µM (inactive)
- GI50 (NCI-H460): 48.8 µM (inactive)
- GI50 (NCI-H23): 55.3 µM (inactive)
- GI50 (SK-MEL-2): 28.9 µM (inactive)
